Experimental data from ChEMBL document CHEMBL1641552 (Bioorg Med Chem Lett, 2011).
pIC50: −log10 of the molar value.

Experiments:
Neuraminidase [1] = target: T1, Neuraminidase (Influenza A virus, UniProt B4URF0); assay: Noncompetitive inhibition of Influenza A H1N1 virus neuraminidase activity by Lineweaver-Burk plot analysis
Neuraminidase [2] = target: T1, Neuraminidase; assay: Inhibition of Influenza A H1N1 virus neuraminidase activity after 2 hrs by spectrofluorometry
Sialidase = target: T2, Sialidase (Clostridium perfringens, UniProt P10481); assay: Inhibition of Clostridium perfringens neuraminidase
T2 sequence (P10481 whole entry): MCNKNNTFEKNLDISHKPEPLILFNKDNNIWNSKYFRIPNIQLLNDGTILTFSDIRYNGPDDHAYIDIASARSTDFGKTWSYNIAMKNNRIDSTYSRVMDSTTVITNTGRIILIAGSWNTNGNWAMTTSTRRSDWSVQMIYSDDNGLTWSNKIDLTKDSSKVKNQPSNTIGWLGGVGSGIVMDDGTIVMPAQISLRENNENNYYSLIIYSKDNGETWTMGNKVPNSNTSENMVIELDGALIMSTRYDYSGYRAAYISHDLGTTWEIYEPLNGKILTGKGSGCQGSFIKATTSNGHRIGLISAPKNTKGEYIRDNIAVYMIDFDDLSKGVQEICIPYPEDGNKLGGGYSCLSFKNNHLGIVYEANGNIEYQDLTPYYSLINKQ

Neuraminidase [3] = target: T1, Neuraminidase; assay: Inhibition of Influenza A H9N2 virus neuraminidase activity after 2 hrs by spectrofluorometry
Neuraminidase [4] = target: T1, Neuraminidase; format: cell-based, H1N1 swine influenza virus, HEK-293T

SMILES	pIC50 (Neuraminidase [1])	pIC50 (Neuraminidase [2])	pIC50 (Sialidase)	pIC50 (Neuraminidase [3])	pIC50 (Neuraminidase [4])
CC(C)=CCc1cc(/C=C/C(=O)c2ccc(O)cc2O)cc(O)c1O [5'-PRENYLBUTEIN]	4.02	4.12	5.03	3.98	–
COc1cc(O)ccc1/C=C/C(=O)c1ccc(O)cc1 [ECHINATIN]	4.52	4.67	–	4.68	5.04
O=C(/C=C/c1ccc(O)cc1)c1ccc(O)cc1O [ISOLIQUIRITIGENIN]	–	–	4.36	–	–
CC(C)=CCc1cc(/C=C/C(=O)c2ccc(O)c(CC=C(C)C)c2O)ccc1O [KANZONOL C]	3.67	3.72	5.95	3.87	–
C=CC(C)(C)c1cc(/C=C/C(=O)c2ccc(O)cc2)c(OC)cc1O [LICOAGROCHACONE A]	4.27	4.25	4.69	4.27	4.80
CC(C)=CCc1cc(/C=C/C(=O)c2ccc(O)cc2O)ccc1O [LICOAGROCHALCONE A]	3.73	3.80	5.80	3.76	–
COc1c(/C=C/C(=O)c2ccc(O)c(CC=C(C)C)c2)ccc(O)c1O [LICOCHALCONE D]	3.99	4.09	5.48	4.00	–
C=CC(C)(C)c1cc(/C=C/C(=O)c2ccc(O)cc2O)c(OC)cc1O [LICOCHALCONE G]	3.93	3.97	5.63	3.93	–
